Measurements reported in ChEMBL document CHEMBL1201862, “PubChem BioAssay data set” (2004).
Values belong to the molecule of their own block, whether it stands above or below them. Activity calls are given as the source filed them.

What was measured:
[1] = target: T1, Sentrin-specific protease 6 (Homo sapiens, UniProt Q9GZR1); assay type: functional;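 note: Luminescence-based dose-response confirmatory assay of SENP6 inhibition, following up an ultra-high-throughput screen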
T1 sequence (Q9GZR1 whole entry): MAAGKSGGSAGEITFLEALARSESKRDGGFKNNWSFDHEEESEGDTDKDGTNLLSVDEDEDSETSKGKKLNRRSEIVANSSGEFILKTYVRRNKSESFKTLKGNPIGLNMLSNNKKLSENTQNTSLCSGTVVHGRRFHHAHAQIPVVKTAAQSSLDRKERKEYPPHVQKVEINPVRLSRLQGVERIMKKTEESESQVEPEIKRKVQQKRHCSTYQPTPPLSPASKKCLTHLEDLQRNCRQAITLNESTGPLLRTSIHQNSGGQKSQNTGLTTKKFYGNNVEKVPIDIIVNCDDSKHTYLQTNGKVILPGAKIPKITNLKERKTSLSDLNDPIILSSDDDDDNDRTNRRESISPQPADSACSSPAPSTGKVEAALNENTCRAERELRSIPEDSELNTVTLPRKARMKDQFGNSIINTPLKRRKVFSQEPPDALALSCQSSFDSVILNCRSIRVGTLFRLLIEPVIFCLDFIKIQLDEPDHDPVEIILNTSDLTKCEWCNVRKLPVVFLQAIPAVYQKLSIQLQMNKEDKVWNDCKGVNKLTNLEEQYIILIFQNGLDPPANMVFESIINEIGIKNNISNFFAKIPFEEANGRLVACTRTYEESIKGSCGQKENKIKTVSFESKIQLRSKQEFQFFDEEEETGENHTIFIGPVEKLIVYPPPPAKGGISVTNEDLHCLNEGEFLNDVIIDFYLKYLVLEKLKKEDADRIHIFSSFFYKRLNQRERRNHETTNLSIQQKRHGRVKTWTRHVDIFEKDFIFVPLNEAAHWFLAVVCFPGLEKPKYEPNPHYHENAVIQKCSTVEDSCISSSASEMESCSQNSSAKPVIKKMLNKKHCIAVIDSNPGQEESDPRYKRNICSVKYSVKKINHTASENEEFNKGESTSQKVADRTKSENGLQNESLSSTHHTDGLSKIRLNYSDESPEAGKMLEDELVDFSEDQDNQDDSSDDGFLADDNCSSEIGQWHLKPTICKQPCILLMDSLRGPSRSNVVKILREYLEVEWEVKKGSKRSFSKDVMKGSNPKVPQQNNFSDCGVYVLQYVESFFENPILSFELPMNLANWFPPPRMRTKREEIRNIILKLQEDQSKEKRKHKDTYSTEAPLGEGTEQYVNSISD

ORF 73 = ORF 73 (Human herpesvirus 8, UniProt O40947); assay: inhibitors of C-LANA binding to LBS DNA, dose response, biochemical, fluorescence polarization, cherry-picked samples (AID 504725); design: species or system Human gammaherpesvirus 8;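 note: fluorescence polarization of a labeled DNA duplex reporting LANA DNA binding; potency is for inhibitors that block LANA binding to the DNA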
[2] = target: Serine/threonine-protein kinase DCLK1 (Homo sapiens, UniProt O15075); assay type: functional;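 note: affinity for DCLK1 (listed as DCAMKL1) measured as one member of a kinome-wide kinase profiling panel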
[3] = target: Phosphorylase b kinase gamma catalytic chain, liver/testis isoform (Homo sapiens, UniProt P15735); assay type: functional;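 note: PHKG2 measured as one member of a kinome-wide kinase panel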
[4] = target: Maternal embryonic leucine zipper kinase (Homo sapiens, UniProt Q14680); assay type: functional
[5] = target: Non-receptor tyrosine-protein kinase TYK2 (Homo sapiens, UniProt P29597); assay type: functional
[6] = target: Lymphokine-activated killer T-cell-originated protein kinase (Homo sapiens, UniProt Q96KB5); assay type: functional;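 note: value comes from a kinase panel screen in which TOPK was one of the panel members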
[7] = target: Rho-associated protein kinase 2 (Homo sapiens, UniProt O75116); assay type: functional
[8] = target: Protein kinase C iota type (Homo sapiens, UniProt P41743); assay type: functional;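 note: measured within a kinome-wide kinase panel, PRKCI as panel member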
[9] = target: Tyrosine-protein kinase SYK (Homo sapiens, UniProt P43405); assay type: functional
[10] = target: Serine/threonine-protein kinase PLK1 (Homo sapiens, UniProt P53350); assay type: functional;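 note: PLK1 measured as one member of a kinome-wide profiling panel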
[11] = target: Interleukin-1 receptor-associated kinase 4 (Homo sapiens, UniProt Q9NWZ3); assay type: functional
[12] = target: 3-phosphoinositide-dependent protein kinase 1 (Homo sapiens, UniProt O15530); assay type: functional;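 note: value comes from the Navigating the Kinome panel, PDPK1 member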
[13] = target: Dual specificity tyrosine-phosphorylation-regulated kinase 3 (Homo sapiens, UniProt O43781); assay type: functional;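 note: measured as one member of a broad kinase panel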
[14] = target: Vascular endothelial growth factor receptor 3 (Homo sapiens, UniProt P35916); assay type: functional;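 note: value from a kinome-wide profiling panel, with FLT4 as the panel member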
[15] = target: Testis-specific serine/threonine-protein kinase 2 (Homo sapiens, UniProt Q96PF2); assay type: functional;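 note: part of the Navigating the Kinome panel, target entry STK22B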
[16] = target: Tyrosine-protein kinase ITK/TSK (Homo sapiens, UniProt Q08881); assay type: functional;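 note: affinity for ITK measured as one member of a broad kinase panel profiling binding across the kinome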
[17] = target: Serine/threonine-protein kinase PLK4 (Homo sapiens, UniProt O00444); assay type: functional;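 note: PLK4 measured as one member of a kinome-wide kinase profiling panel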
[18] = target: Mast/stem cell growth factor receptor Kit (Homo sapiens, UniProt P10721); assay type: functional;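 note: KIT entry within a kinase panel assay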
[19] = target: Calcium/calmodulin-dependent protein kinase type II subunit gamma (Homo sapiens, UniProt Q13555); assay type: functional
LIM domain kinase 1 = LIM domain kinase 1 (Homo sapiens, UniProt P53667); assay: Navigating the Kinome. Panel member name: LIMK1; assay type: functional
[20] = target: Platelet-derived growth factor receptor beta (Homo sapiens, UniProt P09619); assay type: functional;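 note: value comes from a kinome panel, with PDGFRB tested as one panel member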
[21] = target: Leucine-rich repeat serine/threonine-protein kinase 2 (Homo sapiens, UniProt Q5S007); assay type: functional;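 note: value from a broad kinome-wide panel profiling study in which LRRK2 was one of the kinases tested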

Chain of Interleukin-1 receptor-associated kinase 4 (Q9NWZ3 whole entry): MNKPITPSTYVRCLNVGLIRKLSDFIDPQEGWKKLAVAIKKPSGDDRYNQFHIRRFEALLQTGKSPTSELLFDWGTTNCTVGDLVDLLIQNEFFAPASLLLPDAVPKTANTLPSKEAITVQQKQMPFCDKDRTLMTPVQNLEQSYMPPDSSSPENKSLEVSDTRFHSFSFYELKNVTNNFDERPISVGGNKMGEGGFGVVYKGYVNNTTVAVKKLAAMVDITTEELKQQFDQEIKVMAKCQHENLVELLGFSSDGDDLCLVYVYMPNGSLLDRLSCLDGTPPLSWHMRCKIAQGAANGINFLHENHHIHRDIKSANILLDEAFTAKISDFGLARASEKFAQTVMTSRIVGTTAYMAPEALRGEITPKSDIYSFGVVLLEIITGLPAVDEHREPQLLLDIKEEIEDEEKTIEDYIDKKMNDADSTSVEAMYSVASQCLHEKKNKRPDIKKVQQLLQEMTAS
Chain of Phosphorylase b kinase gamma catalytic chain, liver/testis isoform (P15735 whole entry, canonical isoform): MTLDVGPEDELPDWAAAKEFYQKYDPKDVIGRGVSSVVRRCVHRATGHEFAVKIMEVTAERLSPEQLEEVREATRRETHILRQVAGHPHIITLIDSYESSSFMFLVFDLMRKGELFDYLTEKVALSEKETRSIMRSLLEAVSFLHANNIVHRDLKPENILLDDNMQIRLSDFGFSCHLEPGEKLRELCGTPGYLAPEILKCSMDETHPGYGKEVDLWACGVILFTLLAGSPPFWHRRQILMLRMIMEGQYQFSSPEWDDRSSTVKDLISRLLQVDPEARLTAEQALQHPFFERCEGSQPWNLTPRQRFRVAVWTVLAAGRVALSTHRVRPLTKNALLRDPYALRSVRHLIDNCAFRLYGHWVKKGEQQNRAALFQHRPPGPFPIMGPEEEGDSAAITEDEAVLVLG
Chain of Tyrosine-protein kinase ITK/TSK (Q08881 whole entry): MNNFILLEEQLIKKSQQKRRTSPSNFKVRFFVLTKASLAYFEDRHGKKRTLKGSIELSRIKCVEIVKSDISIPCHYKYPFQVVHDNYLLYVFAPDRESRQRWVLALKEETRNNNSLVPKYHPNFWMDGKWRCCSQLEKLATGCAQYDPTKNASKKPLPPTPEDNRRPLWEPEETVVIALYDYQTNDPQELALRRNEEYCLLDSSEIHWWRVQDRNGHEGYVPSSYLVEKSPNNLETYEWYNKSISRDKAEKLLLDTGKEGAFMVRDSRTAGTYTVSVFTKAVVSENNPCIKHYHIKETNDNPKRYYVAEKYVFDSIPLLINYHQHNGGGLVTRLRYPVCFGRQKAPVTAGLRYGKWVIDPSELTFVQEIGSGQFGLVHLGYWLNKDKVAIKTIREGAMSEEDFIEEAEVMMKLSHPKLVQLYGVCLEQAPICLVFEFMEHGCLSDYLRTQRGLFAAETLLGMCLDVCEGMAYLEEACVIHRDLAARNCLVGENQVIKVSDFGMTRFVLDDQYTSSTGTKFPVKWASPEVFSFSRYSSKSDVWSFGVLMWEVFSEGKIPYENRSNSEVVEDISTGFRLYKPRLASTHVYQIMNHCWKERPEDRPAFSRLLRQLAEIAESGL
Chain of 3-phosphoinositide-dependent protein kinase 1 (O15530 whole entry): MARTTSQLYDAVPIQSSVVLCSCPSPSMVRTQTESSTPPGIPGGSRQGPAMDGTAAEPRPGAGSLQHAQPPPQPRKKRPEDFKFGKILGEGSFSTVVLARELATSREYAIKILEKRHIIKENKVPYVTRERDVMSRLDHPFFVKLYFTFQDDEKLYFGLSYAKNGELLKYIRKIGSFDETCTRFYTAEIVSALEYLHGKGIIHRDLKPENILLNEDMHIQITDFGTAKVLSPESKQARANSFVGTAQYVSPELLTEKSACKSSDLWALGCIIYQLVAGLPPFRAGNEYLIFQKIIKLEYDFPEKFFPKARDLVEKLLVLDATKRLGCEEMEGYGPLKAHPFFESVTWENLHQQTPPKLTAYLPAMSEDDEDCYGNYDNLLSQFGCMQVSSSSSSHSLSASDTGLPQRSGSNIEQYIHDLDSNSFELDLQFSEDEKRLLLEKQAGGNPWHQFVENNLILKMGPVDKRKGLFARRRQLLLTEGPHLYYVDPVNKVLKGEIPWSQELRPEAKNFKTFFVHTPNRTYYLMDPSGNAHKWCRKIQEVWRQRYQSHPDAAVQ
Chain of Serine/threonine-protein kinase PLK1 (P53350 whole entry): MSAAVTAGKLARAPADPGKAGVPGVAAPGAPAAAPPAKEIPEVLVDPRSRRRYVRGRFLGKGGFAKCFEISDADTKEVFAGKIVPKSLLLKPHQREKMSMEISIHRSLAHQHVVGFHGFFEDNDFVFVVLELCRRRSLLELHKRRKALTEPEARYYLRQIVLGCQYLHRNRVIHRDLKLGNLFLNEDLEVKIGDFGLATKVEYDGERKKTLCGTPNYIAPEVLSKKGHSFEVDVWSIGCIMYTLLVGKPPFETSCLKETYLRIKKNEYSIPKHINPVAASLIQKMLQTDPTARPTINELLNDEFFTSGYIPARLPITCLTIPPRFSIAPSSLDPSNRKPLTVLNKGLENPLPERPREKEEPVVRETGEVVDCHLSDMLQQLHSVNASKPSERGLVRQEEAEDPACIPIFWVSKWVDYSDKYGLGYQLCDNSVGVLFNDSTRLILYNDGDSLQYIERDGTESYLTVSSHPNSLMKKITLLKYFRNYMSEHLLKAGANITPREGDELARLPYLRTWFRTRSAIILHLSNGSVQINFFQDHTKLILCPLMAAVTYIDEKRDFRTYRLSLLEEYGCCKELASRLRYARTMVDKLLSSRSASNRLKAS
Chain of Maternal embryonic leucine zipper kinase (Q14680 whole entry): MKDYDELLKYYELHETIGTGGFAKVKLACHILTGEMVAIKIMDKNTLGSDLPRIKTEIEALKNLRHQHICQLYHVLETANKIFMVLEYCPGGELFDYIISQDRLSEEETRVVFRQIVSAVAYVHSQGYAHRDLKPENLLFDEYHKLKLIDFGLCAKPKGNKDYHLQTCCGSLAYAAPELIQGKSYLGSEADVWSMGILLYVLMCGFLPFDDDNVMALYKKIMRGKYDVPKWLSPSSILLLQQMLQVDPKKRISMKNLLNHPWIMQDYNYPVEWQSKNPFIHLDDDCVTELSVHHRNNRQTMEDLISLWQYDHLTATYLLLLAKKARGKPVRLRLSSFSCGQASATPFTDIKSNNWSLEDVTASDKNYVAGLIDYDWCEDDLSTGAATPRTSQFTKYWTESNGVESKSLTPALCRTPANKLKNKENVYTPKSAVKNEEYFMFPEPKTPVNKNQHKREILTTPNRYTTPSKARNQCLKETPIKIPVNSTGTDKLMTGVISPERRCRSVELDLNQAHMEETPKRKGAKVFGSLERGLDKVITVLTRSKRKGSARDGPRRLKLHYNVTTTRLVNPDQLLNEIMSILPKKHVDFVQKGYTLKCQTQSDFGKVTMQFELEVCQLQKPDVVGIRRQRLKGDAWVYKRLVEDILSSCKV
Chain of Dual specificity tyrosine-phosphorylation-regulated kinase 3 (O43781 whole entry): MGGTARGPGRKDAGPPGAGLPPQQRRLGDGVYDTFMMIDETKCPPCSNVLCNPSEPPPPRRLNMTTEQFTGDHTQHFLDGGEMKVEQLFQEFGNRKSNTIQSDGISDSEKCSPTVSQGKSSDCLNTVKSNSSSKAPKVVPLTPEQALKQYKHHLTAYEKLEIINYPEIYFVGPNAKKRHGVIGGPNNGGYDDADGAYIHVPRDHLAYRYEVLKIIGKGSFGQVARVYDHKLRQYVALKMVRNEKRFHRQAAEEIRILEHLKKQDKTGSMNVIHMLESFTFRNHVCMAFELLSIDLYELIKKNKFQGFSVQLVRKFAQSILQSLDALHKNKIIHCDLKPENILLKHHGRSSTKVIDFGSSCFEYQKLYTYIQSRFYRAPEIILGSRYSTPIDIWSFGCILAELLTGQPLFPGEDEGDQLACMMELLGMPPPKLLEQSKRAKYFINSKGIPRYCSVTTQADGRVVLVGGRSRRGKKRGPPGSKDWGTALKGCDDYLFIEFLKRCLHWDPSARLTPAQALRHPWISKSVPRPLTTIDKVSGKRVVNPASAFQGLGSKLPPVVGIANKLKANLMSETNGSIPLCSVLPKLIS
Chain of Protein kinase C iota type (P41743 whole entry): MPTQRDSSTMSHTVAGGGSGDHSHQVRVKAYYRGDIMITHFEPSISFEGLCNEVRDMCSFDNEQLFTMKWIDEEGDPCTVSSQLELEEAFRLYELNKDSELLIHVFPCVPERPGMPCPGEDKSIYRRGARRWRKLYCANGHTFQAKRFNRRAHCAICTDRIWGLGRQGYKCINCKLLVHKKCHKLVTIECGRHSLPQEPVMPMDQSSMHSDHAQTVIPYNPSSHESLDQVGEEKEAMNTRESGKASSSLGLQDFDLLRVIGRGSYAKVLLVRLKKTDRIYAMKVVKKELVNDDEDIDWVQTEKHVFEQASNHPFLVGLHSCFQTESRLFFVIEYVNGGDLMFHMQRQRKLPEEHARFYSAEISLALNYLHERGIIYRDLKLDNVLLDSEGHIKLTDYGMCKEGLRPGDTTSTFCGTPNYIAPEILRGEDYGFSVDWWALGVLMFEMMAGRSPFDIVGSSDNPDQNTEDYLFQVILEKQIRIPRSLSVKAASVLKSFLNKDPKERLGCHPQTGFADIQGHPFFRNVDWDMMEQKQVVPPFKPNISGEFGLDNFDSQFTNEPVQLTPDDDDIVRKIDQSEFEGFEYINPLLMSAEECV
Chain of Testis-specific serine/threonine-protein kinase 2 (Q96PF2 whole entry): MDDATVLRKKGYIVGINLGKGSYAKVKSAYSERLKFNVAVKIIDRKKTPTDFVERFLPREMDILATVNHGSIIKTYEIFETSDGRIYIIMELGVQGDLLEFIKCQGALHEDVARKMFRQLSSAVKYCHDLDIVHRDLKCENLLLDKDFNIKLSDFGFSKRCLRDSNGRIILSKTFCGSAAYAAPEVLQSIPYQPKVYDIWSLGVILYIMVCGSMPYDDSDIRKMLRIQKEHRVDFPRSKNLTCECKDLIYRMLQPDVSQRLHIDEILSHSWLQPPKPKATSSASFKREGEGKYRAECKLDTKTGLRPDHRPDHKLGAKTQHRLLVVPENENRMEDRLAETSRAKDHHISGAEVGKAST

IC50 [1]: 3820 nM (active)
Structure (SMILES): O=C(COC(=O)c1ccc([N+](=O)[O-])s1)Nc1ccc(F)cc1

Structure (SMILES): CCN(CC)CCCC(C)n1c2nc(=O)[nH]c(=O)c-2nc2cc(Cl)ccc21 (centres undefined)
AC50 (ORF 73): 370 nM (active)

Ki [2]: > 10000 nM (inactive)
Ki [3]: 200 nM (active)
pKi [3]: 6.7
Ki [4]: 5.01 nM (active)
pKi [4]: 8.3
Ki [5]: 1000 nM (active)
Ki [7]: > 3.98 nM (inactive)
Ki [8]: 2510 nM (active)
pKi [8]: 5.6
Ki [9]: 1000 nM (active)
pKi [9]: 6
Ki [10]: 251 nM (active)
pKi [10]: 6.6
Ki [11]: 39.8 nM (active)
pKi [11]: 7.4
Ki [12]: 501 nM (active)
pKi [12]: 6.3
Ki [13]: 5.01 nM (active)
pKi [13]: 8.3
Ki [14]: 200 nM (active)
pKi [14]: 6.7
Ki [15]: > 1580 nM (inactive)
Ki [16]: 398 nM (active)
pKi [16]: 6.4
Ki [17]: > 3980 nM (inactive)
Ki [18]: > 1260 nM (inactive)
Ki [19]: 31.6 nM (active)
pKi [19]: 7.5
Structure (SMILES): OC1CCC(Nc2nc(Cl)cc(-c3c[nH]c4ncccc34)n2)CC1 (centres undefined)
Ki [6]: 3160 nM (active)

Ki (LIM domain kinase 1): > 3160 nM (inactive)
Ki [20]: > 2000 nM (inactive)
Ki [21]: > 2510 nM (inactive)
Structure (SMILES): COc1cccc(CNC(=O)c2cnc(-c3ccncc3)nc2)c1
